Assay results from PMC4761407 (ACS Chemical Biology, 2015).

Molecular target: CatSper channel complex (Homo sapiens, UniProt Q7RTX7+Q86XQ3+Q8NEC5+Q96P56)
Assay: whole-cell patch clamp:[…] inhibits sirenin-induced ICatSper
Type: cell-based

Chain of CatSper channel complex (Q8NEC5 whole entry): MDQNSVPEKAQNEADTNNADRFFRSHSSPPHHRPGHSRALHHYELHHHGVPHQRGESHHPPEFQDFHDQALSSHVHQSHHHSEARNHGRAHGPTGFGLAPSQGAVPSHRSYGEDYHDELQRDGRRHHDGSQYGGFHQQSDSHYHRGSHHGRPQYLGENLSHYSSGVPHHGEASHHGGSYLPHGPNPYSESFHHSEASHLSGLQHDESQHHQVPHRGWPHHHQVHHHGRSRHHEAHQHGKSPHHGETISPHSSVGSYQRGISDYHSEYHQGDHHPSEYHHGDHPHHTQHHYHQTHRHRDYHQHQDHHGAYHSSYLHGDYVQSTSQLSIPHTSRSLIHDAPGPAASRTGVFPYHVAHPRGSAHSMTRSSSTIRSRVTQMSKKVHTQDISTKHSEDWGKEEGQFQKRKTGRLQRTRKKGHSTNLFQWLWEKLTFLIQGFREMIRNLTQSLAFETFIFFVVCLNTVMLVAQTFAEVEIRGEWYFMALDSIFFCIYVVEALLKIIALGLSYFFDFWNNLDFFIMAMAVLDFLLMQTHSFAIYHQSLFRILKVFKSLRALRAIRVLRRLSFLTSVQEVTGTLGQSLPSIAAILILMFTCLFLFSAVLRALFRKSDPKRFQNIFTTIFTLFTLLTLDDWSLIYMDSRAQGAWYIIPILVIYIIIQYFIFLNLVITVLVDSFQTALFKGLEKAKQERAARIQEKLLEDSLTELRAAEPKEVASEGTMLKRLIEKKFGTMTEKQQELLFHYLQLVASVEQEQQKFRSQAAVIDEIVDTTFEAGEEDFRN
Chain of CatSper channel complex (Q96P56 whole entry): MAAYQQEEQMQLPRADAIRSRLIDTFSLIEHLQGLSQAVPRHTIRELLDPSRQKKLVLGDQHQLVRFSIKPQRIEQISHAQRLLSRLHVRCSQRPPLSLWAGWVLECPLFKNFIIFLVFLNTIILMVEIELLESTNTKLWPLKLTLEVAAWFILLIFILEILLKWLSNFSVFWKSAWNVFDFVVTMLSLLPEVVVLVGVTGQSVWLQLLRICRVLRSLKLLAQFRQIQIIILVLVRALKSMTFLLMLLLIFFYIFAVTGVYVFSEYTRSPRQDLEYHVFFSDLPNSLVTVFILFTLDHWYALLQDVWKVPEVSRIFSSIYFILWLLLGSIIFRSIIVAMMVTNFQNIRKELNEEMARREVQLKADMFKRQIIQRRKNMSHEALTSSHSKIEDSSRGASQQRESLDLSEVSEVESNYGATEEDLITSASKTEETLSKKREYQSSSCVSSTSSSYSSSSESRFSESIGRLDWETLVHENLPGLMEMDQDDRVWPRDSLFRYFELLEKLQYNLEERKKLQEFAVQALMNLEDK
Chain of CatSper channel complex (Q7RTX7 whole entry): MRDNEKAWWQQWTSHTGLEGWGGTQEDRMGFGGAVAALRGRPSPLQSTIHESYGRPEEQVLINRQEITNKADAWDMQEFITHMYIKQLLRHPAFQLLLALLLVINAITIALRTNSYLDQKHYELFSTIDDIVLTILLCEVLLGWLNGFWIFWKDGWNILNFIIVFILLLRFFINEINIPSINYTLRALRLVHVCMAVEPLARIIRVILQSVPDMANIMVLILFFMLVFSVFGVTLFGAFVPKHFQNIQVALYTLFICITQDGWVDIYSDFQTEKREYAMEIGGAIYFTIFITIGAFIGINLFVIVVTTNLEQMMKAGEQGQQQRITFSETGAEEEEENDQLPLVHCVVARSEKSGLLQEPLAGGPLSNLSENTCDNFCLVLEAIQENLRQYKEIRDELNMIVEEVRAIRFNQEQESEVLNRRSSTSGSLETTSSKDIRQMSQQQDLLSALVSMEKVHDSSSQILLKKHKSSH
Chain of CatSper channel complex (Q86XQ3 whole entry): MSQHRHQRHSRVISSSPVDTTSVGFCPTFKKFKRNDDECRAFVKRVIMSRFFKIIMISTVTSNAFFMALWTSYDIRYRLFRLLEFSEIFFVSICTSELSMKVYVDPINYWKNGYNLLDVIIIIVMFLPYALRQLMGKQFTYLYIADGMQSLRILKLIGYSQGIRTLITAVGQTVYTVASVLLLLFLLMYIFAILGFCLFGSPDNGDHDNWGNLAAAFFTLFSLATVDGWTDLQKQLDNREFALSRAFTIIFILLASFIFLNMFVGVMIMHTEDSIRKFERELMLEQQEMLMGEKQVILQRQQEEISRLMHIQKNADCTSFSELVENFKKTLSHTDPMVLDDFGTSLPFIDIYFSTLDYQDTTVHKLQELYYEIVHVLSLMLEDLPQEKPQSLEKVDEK

## COCC(=O)O[C@]1(CCN(C)CCCc2nc3ccccc3[nH]2)CCc2cc(F)ccc2[C@@H]1C(C)C [mibefradil]
  whole-cell patch clamp: 30 μM inhibits sirenin-induced ICatSper; FLIPR: 55% redu: 30 µM
